Measurements published in patent publication US20240261234A1, “USE OF C[…] THE TREATMENT OF NOCTURNAL SNORING” (GW Research Limited, priority 2014, published 2024).
“And” between values parts separate entries of the source, which are not always exact repeats. Equal values may be shown once. “Also recorded” adds a separate entry of the source.

Columns and labels:
[1] = system: apnea hypopnea index; details: short term; small trial; cited from earlier work
[2] = system: seizures in treatment-resistant epilepsy characterised by Doose Syndrome; test: Expanded access compassionate use program: seizure frequency with CBD therapy in Doose Syndrome; format: in vivo, children and young adults
Procedure: (§1) Of 137 children and young adults with severe, childhood onset treatment-resistant epilepsy (TRE), six suffered from Doose Syndrome. These subjects were tested with a highly purified extract of cannabidiol (CBD) obtained from a cannabis plant. The participants in the study were part of an expanded access compassionate use program for CBD.
(§2) All of these patients with a diagnosis of Doose Syndrome presented with multiple seizure types which included tonic-clonic seizures; myoclonic seizures; atonic seizures; absence seizures; myoclonic-absence seizures; and tonic seizures. In addition nocturnal snoring was encountered by one of the patients in the study.
Both patients entered a baseline period of 4 weeks when parents/caregivers kept prospective seizure diaries, noting all countable motor seizure types.
(§3) The patients then received a highly purified CBD extract (greater than 98% CBD w/w) in sesame oil, of known and constant composition, at a dose of 5 mg/kg/day in addition to their baseline anti-epileptic drug (AED) regimen.
Laboratory testing for hematologic, liver, kidney function, and concomitant AED levels was performed at baseline, and after CBD therapy.
All patients were taking at least two concomitant anti-epileptic drugs. These included clobazam; diazepam; lacosamide; lamotrigine; levetiracetam; lorazepam; nordiazepam; n-desmethylclobazam; phenytoin; valproic acid; zonisamide. The average number of concomitant antiepileptic drugs being taken was 2.7. The majority took either clobazam and/or valproic acid.
There were 6 children and young adult patients who received at least 3 months of treatment all of whom suffered from treatment-resistant epilepsy which is characterised by Doose Syndrome.
The change from baseline in the number of different seizures and total number of seizures after 16 weeks treatment are summarized in Table 4 below.

[3] = system: nocturnal snoring in a patient with Doose Syndrome; test: Expanded access compassionate use program: nocturnal snoring with CBD therapy; format: in vivo, children and young adults
Procedure: as §1, §2, §3
Table 5 below describes the data that was collated for the other seizure types including nocturnal snoring.

[4] = Solubility of the drug substance in water; format: physicochemical
Text: The drug substance, CBD is insoluble in water. Sesame oil was selected as an excipient to solubilize the drug substance.

[5] = absence seizures (n = 3), Doose Syndrome patients
[6] = atonic seizures (n = 2), Doose Syndrome patients
[7] = tonic-clonic seizures (n = 5), Doose Syndrome patients
[8] = nocturnal snoring (n = 1), Doose Syndrome patient

| SMILES | Effect on apnea hypopnea index [1] | Patients with <50% reduction in absence seizures [2, 5] [%] | Patients with >50% reduction in absence seizures [2, 5] [%] | Number of Doose syndrome patients with a decrease in total seizure frequency ([2]; after 3 months of therapy, of 6 patients) | Patients with <50% reduction in atonic seizures [2, 6] [%] | Patients with >50% reduction in atonic seizures [2, 6] [%] | Effect on seizure sub-types associated with Doose Syndrome (in words) ([2]; patients not responding well to existing AED) | Change in baseline (%) in total seizure frequency ([2]; per subject (subjects 1-6, Doose Syndrome), after 16 weeks treatment, CBD 5 up to 25 mg/kg/day added to baseline AED) | >50% reduction in seizures (total seizures) ([2]; per subject (subjects 1-6, Doose Syndrome), after 16 weeks treatment, Yes/No) | Patients with <50% reduction in tonic-clonic seizures [2, 7] [%] | Patients with >50% reduction in tonic-clonic seizures [2, 7] [%] | Effect on occurrence of nocturnal snoring (in words) ([3]; a child with Doose Syndrome) | Patients with <50% reduction in nocturnal snoring [3, 8] [%] | Patients with >50% reduction in nocturnal snoring [3, 8] [%] | Solubility in water [4] |
| --- | --- | --- | --- | --- | --- | --- | --- | --- | --- | --- | --- | --- | --- | --- | --- |
| CCCCCc1cc(O)c2c(c1)OC(C)(C)[C@@H]1CCC(C)=C[C@@H]21 [dronabinol, Tetrahydro- cannabinol] | able to reduce the apnea hypopnea index | – | – | – | – | – | – | – | – | – | – | – | – | – | – |
| C=C(C)[C@@H]1CCC(C)=C[C@H]1c1c(O)cc(CCCCC)cc1O [CBD, Cannabidiol] | – | 0 | 100 | five | 50 | 50 | very effective treatment for all of the seizure sub-types; also recorded: significantly reduces the number of seizures | −100.0% (2×) and 65.8% and −67.4% and −68.7% and −92.0% | Yes (5×) and No | 20 | 80 | completely eliminate the occurrence of nocturnal snoring | 0 | 100 | insoluble |
